In PubChem BioAssay (NCI) one finds TGI and GI50 data, which are given here for ten compounds.

Some test systems named below: ACHN renal; CCRF-CEM leukemia; HCT-15 colon; IGROV1 ovarian; M14 melanoma; MOLT-4 leukemia; SK-MEL-2 melanoma; SK-MEL-5 melanoma; SK-OV-3 ovarian; SNB-19 CNS.
What all share (experiment): NCI anticancer screen, dose series, 48 h

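Five compound concentrations were applied to cells in 96-well plates for 48 hours; endpoints were derived by simple linear interpolation of the resulting dose-response curve. Abbreviation: GI50, concentration required for 50% inhibition of growth. At the TGI there is no net growth.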

In the case of `Cc1ccc(C)c(NC(=O)CCC(=O)CC(=O)C(C)(C)C)c1`, the TGI with ACHN renal, in the test with CCRF-CEM leukemia, with HCT-15 colon, with IGROV1 ovarian, in the test on M14 melanoma and with MOLT-4 leukemia was > 100 µM each time. Besides, the TGI with SK-MEL-2 melanoma, with SK-MEL-5 melanoma, in the test with SK-OV-3 ovarian and with SNB-19 CNS was > 100 µM each time.
Turning to `O=C(/C=C/c1cccnc1)/C=C/c1cccnc1`, the GI50 with ACHN renal was 2.19 µM; in the test with CCRF-CEM leukemia, 0.199 µM; with HCT-15 colon, 0.523 µM; in the test with IGROV1 ovarian, 0.463 µM; with M14 melanoma, 1.84 µM; in the test on MOLT-4 leukemia, 0.31 µM. Further, the GI50 with SK-MEL-2 melanoma was 1.43 µM; in the test with SK-MEL-5 melanoma, 2.06 µM; in the test with SK-OV-3 ovarian it was 2.74 µM; in the test on SNB-19 CNS it was 3.64 µM. Also, the TGI is 5.48 µM in the test with ACHN renal; 0.821 µM with CCRF-CEM leukemia; 1.98 µM in the test on HCT-15 colon; 1.82 µM in the test on IGROV1 ovarian; 4.62 µM in the test on M14 melanoma; 3.58 µM with SK-MEL-2 melanoma. In addition, the values for the TGI with SK-MEL-5 melanoma, in the test with SK-OV-3 ovarian and in the test with SNB-19 CNS were 4.7 µM, 6.78 µM and 11.6 µM, respectively.
Regarding `COC(=O)C1(c2ccc(OC)cc2)NC(c2ccccc2)C2C(=O)N(c3ccc(OC)cc3)C(=O)C21` (centres undefined), the TGI with ACHN renal, with CCRF-CEM leukemia, with HCT-15 colon, with IGROV1 ovarian, in the test on M14 melanoma and in the test on MOLT-4 leukemia was > 100 µM throughout. For the same compound, the TGI in the test on SK-MEL-2 melanoma, with SK-MEL-5 melanoma, with SK-OV-3 ovarian and in the test on SNB-19 CNS was > 100 µM in each case.
With `O=C1/C(=C\c2ccccc2)CN(C(=O)c2ccccc2F)C/C1=C\c1ccccc1`, the GI50 in the test with ACHN renal was 1.85 µM; with CCRF-CEM leukemia, 1.52 µM; in the test with HCT-15 colon it was 1.88 µM; in the test on IGROV1 ovarian, 2.08 µM; in the test on M14 melanoma, 2.51 µM; with MOLT-4 leukemia, 2.93 µM. In addition, the GI50 in the test with SK-MEL-2 melanoma was 2.95 µM; in the test with SK-MEL-5 melanoma, 1.7 µM; in the test with SK-OV-3 ovarian, 2.4 µM; in the test on SNB-19 CNS, 1.85 µM. Besides, the TGI with ACHN renal was determined as 3.46 µM; in the test with CCRF-CEM leukemia, 5.62 µM; in the test on HCT-15 colon it was 4.11 µM; in the test with IGROV1 ovarian, 4.46 µM; in the test on M14 melanoma it was 7.12 µM; in the test with MOLT-4 leukemia, 8.51 µM. For the same compound, the TGI stood at 8.3 µM with SK-MEL-2 melanoma, 3.23 µM in the test with SK-MEL-5 melanoma, 5.34 µM with SK-OV-3 ovarian and 4.15 µM in the test on SNB-19 CNS.
In the case of `C/C(=N\NC(=S)Nc1ccccc1)c1ccccn1`, the GI50 in the test with ACHN renal was 0.0335 µM; with CCRF-CEM leukemia, < 0.01 µM; in the test with HCT-15 colon, 0.0338 µM; with IGROV1 ovarian, < 0.0163 µM; with M14 melanoma, 0.0624 µM; in the test with MOLT-4 leukemia it was < 0.0278 µM. The GI50 in the test with SK-MEL-2 melanoma was 1.37 µM; with SK-MEL-5 melanoma, 0.199 µM; in the test on SK-OV-3 ovarian, 0.51 µM; in the test on SNB-19 CNS, 1.1 µM. Moreover, the TGI with ACHN renal is 3.75 µM; with CCRF-CEM leukemia, > 100 µM; with HCT-15 colon it was 13.2 µM; in the test with IGROV1 ovarian it was 9.26 µM; with M14 melanoma it was 2.17 µM; in the test on MOLT-4 leukemia it was 16.9 µM. The TGI in the test with SK-MEL-2 melanoma was determined as 3.79 µM; with SK-MEL-5 melanoma it was 1.56 µM; in the test on SK-OV-3 ovarian it was 2.22 µM; with SNB-19 CNS it was 16.4 µM.
As to `CC(=O)NNc1nc(C)c(C(/C=C/c2ccc3c(c2)OCO3)=N/NC(=O)c2ccncc2)s1`, the TGI in the test with ACHN renal, in the test on CCRF-CEM leukemia, with HCT-15 colon, with IGROV1 ovarian, with M14 melanoma and in the test with MOLT-4 leukemia was > 100 µM throughout. Further, the TGI in the test on SK-MEL-2 melanoma, with SK-MEL-5 melanoma, with SK-OV-3 ovarian and in the test on SNB-19 CNS was > 100 µM each time.
With `COC1C2c3ccccc3C(C#N)(Cc3ccc4c(c32)OCO4)N1C(=O)c1ccccc1` (centres undefined), the TGI in the test with ACHN renal, in the test on CCRF-CEM leukemia, in the test on HCT-15 colon, in the test with IGROV1 ovarian, in the test on M14 melanoma and with MOLT-4 leukemia was > 100 µM in each case. Moreover, the TGI with SK-MEL-2 melanoma was > 100 µM; with SK-MEL-5 melanoma, 31.5 µM; in the test with SK-OV-3 ovarian, > 100 µM; in the test on SNB-19 CNS, > 100 µM.
In the case of `COc1ccc(C(NCCNC(c2ccc(OC)c(OC)c2)c2cc3c(cc2O)OCO3)c2cc3c(cc2O)OCO3)cc1OC` (centres undefined), the TGI in the test on ACHN renal was 7.95 µM; with CCRF-CEM leukemia, 0.86 µM; in the test with HCT-15 colon it was 5.21 µM; in the test on IGROV1 ovarian, 7.67 µM; with M14 melanoma it was 8.39 µM; with MOLT-4 leukemia it was > 100 µM. Besides, the TGI amounted to 15.9 µM in the test with SK-MEL-2 melanoma, 19.9 µM in the test on SK-MEL-5 melanoma, 18.8 µM in the test with SK-OV-3 ovarian and 15.4 µM with SNB-19 CNS.
As for `COC(=O)CC(CC(=O)C(=O)OC)C(=O)OC` (centres undefined), the TGI in the test on ACHN renal, with CCRF-CEM leukemia, with HCT-15 colon, with IGROV1 ovarian, in the test on M14 melanoma and with MOLT-4 leukemia was > 100 µM each time. The TGI in the test on SK-MEL-2 melanoma, with SK-MEL-5 melanoma, with SK-OV-3 ovarian and in the test on SNB-19 CNS was > 100 µM in each case.
With `CC(=O)C(CN1CCOCC1)C(c1ccccc1)c1c(O)c2ccccc2oc1=O` (centres undefined), the TGI in the test with ACHN renal, in the test with CCRF-CEM leukemia, in the test with HCT-15 colon, in the test on IGROV1 ovarian, in the test on M14 melanoma and in the test with MOLT-4 leukemia was > 100 µM throughout. Also, the TGI in the test on SK-MEL-2 melanoma, in the test with SK-MEL-5 melanoma, with SK-OV-3 ovarian and in the test on SNB-19 CNS was > 100 µM in each case.
